Results published in paper PMC4441536 (Journal of Medicinal Chemistry, 2015).
Converted amounts (≈) assume the structure as drawn. “And” between values parts separate entries of the source, which are not always exact repeats. Equal values may be shown once. Read-outs that look alike come from different tables or passages of the source.

Columns and labels:
[1] = molecular target: CB1 (h) (Homo sapiens, UniProt P21554)
[2] = molecular target: M3 (h) (Homo sapiens, UniProt P20309)
[3] = molecular target: 5-HT1A (h) (Homo sapiens, UniProt P08908)
[4] = mouse, in vivo; for AUC / Cmax / Terminal Half-Life: 5 mg/kg
[5] = in vivo; conditions: mouse, 5 mg/kg; for half-life: Terminal Half-Life
[6] = physchem; conditions: D2O
[7] = physchem
[8] = molecular target: A3 (h) (Homo sapiens, UniProt P0DMS8)
[9] = molecular target: 5-HT3 (h) (Homo sapiens, UniProt P46098)
[10] = molecular target: B2 (h) (Homo sapiens, UniProt P30411)
[11] = molecular target: NK3 (h) (Homo sapiens, UniProt P29371)
[12] = molecular target: D1 (h) (Homo sapiens, UniProt P21728)
[13] = molecular target: NK2 (h) (Homo sapiens, UniProt P21452)
[14] = molecular target: beta 1 (h) (Homo sapiens, UniProt P08588)
[15] = molecular target: H2 (h) (Homo sapiens, UniProt P25021)
[16] = molecular target: 5-HT2A (h) (Homo sapiens, UniProt P28223)
[17] = molecular target: MT1 (ML1A) (h) (Homo sapiens, UniProt P48039)
[18] = molecular target: M2 (h) (Homo sapiens, UniProt P08172)
[19] = molecular target: AT1 (h) (Homo sapiens, UniProt P30556)
[20] = molecular target: 5-HT1B (Rattus norvegicus, UniProt P28564)
[21] = molecular target: 5-HT5a (h) (Homo sapiens, UniProt P47898)
[22] = molecular target: 5-HT6 (h) (Homo sapiens, UniProt P50406)
[23] = molecular target: 5-HT7 (h) (Homo sapiens, UniProt P34969)
[24] = molecular target: D2S (h) (Homo sapiens, UniProt P14416)
[25] = iv, IV 5 mg/kg, individual animals 2, 3, 4
[26] = po, PO 5 mg/kg, individual animals 6, 7, 8

Chain of D2S (h) (P14416 1-414 isoform P14416-2): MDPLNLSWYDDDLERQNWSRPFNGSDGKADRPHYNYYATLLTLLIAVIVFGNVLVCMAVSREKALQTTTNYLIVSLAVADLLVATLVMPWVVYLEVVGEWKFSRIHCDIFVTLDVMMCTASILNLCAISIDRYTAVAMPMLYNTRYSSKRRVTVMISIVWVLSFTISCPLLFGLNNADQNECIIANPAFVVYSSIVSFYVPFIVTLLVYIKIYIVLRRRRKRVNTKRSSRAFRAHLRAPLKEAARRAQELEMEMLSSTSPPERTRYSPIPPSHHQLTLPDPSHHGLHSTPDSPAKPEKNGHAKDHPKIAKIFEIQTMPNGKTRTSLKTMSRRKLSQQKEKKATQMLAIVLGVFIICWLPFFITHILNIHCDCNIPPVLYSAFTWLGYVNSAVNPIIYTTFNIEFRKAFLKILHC
Chain of D1 (h) (P21728 whole entry): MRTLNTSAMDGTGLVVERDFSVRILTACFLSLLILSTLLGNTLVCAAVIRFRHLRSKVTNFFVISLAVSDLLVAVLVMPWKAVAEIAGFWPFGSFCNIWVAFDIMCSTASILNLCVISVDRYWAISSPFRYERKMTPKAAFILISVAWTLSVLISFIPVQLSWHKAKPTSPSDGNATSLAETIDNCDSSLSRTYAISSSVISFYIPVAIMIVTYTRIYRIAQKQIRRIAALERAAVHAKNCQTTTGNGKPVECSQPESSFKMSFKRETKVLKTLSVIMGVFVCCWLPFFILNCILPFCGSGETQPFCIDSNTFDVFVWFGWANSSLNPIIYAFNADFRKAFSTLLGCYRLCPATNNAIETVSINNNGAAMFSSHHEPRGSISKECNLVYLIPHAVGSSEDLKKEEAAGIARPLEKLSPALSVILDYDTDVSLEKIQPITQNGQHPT
Chain of 5-HT1A (h) (P08908 whole entry): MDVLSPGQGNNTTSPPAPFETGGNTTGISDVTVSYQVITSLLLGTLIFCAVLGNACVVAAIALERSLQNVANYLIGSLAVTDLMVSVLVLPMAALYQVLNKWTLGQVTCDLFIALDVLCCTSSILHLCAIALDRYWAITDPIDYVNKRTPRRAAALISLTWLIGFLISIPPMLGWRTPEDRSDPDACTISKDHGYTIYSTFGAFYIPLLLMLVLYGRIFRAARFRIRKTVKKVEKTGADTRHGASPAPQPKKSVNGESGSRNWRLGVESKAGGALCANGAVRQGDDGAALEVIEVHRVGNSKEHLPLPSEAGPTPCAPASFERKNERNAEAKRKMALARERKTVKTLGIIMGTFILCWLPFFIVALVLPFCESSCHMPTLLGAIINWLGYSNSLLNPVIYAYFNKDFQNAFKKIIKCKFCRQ
Chain of AT1 (h) (P30556 whole entry): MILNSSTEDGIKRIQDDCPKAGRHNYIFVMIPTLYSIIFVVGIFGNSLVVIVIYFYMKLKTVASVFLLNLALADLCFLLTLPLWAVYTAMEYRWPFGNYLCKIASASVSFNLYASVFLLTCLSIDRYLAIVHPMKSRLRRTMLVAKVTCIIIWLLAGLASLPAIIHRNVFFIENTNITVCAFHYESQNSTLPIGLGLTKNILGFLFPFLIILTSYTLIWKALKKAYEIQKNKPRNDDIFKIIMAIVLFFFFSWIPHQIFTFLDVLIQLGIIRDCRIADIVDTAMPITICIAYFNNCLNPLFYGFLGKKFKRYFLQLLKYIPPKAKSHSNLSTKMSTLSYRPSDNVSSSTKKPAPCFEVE
Chain of beta 1 (h) (P08588 whole entry): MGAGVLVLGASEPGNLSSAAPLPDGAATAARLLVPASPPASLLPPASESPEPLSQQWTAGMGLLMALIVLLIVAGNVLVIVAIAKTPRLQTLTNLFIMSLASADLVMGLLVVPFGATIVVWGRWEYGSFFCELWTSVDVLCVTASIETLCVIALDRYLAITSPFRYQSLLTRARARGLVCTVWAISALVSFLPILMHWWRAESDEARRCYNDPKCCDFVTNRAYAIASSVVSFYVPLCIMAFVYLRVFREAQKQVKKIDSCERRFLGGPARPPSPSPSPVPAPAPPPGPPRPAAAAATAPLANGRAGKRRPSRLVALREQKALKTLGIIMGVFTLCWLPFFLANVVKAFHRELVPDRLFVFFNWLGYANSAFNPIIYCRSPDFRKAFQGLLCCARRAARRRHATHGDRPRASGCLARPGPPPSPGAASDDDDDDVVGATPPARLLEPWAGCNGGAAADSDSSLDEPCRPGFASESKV
Chain of CB1 (h) (P21554 whole entry): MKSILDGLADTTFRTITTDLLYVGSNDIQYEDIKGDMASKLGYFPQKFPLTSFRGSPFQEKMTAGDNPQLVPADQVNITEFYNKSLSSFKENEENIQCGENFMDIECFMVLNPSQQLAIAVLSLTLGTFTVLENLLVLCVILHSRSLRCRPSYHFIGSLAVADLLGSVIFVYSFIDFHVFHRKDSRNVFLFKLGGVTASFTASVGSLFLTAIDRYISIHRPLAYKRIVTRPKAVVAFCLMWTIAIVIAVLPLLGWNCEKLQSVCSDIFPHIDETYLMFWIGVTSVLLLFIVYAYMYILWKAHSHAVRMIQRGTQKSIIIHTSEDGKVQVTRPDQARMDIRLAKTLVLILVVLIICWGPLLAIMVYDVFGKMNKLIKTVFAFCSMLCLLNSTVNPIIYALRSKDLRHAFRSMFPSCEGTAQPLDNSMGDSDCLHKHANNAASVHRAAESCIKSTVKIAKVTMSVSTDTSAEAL
Chain of 5-HT1B (P28564 whole entry): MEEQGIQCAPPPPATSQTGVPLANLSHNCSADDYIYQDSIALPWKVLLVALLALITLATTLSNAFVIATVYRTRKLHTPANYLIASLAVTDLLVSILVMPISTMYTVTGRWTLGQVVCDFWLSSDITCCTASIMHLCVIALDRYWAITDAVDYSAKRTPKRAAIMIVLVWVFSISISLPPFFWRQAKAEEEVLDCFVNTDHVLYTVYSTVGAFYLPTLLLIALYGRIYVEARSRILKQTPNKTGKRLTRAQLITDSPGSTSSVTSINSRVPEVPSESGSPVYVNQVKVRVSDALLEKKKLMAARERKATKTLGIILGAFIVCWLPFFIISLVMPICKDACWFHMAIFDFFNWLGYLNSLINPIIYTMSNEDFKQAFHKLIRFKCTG
Chain of 5-HT5a (h) (P47898 whole entry): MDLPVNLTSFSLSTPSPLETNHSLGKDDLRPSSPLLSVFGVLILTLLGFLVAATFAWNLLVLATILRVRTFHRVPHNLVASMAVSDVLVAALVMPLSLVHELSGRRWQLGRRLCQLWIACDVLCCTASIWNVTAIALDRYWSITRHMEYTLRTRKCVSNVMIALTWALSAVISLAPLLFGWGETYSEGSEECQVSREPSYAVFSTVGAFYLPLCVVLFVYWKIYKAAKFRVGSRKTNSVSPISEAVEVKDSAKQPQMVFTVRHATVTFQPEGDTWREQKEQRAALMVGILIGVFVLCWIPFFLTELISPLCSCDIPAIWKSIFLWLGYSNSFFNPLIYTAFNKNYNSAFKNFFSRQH
Chain of NK2 (h) (P21452 whole entry): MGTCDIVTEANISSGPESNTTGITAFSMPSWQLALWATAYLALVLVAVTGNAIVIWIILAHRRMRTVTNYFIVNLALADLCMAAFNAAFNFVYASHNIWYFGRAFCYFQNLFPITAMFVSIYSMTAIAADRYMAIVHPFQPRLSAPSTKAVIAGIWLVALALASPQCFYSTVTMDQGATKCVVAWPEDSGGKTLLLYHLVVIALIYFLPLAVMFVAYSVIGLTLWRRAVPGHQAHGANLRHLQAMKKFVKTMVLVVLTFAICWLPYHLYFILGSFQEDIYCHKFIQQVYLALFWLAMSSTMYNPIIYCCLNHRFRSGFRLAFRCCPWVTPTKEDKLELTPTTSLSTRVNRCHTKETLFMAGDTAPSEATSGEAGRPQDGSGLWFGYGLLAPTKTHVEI
Chain of B2 (h) (P30411 whole entry): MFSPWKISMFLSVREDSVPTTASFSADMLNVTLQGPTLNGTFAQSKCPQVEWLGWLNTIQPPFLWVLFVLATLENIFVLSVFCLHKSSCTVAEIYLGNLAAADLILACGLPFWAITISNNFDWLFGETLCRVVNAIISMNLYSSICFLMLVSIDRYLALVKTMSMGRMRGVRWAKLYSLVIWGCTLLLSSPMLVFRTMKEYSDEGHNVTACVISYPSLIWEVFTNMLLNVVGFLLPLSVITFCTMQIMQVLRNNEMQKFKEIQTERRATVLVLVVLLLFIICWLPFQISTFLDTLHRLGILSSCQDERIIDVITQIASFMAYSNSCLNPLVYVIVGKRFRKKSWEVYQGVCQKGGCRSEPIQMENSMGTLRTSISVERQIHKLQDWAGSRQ
Chain of M2 (h) (P08172 whole entry): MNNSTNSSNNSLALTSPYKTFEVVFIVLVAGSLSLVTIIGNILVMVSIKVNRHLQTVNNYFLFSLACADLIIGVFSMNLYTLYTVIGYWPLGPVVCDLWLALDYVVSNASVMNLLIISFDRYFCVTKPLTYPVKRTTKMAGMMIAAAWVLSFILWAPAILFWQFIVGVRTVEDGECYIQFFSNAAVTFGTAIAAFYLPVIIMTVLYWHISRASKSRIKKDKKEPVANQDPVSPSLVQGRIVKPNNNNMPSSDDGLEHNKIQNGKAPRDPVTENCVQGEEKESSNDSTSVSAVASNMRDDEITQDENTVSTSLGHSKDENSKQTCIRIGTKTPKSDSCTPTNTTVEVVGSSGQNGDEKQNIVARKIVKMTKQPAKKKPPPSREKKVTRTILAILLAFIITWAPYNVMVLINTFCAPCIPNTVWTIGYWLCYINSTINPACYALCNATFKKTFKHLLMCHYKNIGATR
Chain of H2 (h) (P25021 whole entry): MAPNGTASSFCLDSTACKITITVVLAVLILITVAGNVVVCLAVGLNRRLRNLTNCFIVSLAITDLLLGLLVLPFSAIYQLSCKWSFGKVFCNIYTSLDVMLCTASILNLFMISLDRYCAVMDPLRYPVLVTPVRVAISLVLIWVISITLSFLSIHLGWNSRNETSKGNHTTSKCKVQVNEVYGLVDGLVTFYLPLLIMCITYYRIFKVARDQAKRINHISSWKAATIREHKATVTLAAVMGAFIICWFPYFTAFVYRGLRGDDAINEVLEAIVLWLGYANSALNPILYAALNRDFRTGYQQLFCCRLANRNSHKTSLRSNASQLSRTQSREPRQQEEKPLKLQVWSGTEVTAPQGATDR

## CCCCCCC(C)(C)c1ccc([C@@H]2C[C@H](O)CC[C@H]2CCCO)c(O)c1 [CP 55940]
[1]
  nH Ref: 0.8

## C[N+]1(C)CCC(OC(=O)C(c2ccccc2)c2ccccc2)CC1.[I-] [Compound 4-DAMP, 4-DAMP]
[2]
  nH Ref: 1.3

## CCCN(CCC)C1CCc2cccc(O)c2C1 (centres unmarked) [Compound 8-OH-DPAT, 8-OH-DPAT]
[3]
  nH Ref: 1.2

## Cn1cc(CCn2cnc(-c3cnn(C)c3)c2-c2ccc(C#N)cc2)cn1 [Compound 13, 4-(4-(1-methyl-1H-pyrazol-4-yl)-1-(2-(1-methyl-1H-pyrazol-4-yl)ethyl)-1H-imidazol-5-yl)benzonitrile]
[4]
  volume of distribution: moderate
[4]; iv
  AUC: 5.875 µM·h and 7.614 µM·h
  Cmax: 10.4 µM and 13.8 µM
  Terminal Half-Life: 59.8 min and 56.6 min
[4]; po
  AUC: 5.161 µM·h and 4.542 µM·h
  Cmax: 6.12 µM and 4.88 µM
  Terminal Half-Life: 68.4 min and 49.3 min
[5]; [25]
  Cmax: 9.53 µM
  half-life: 50.9 min
[5]; iv, Tmax, IV 5 mg/kg, individual animals 2, 3, 4
  Tmax: 4.98 min
[5]; po
  bioavailability: 70%
[5]; [26]
  Cmax: 6.46 µM
  half-life: 45.4 min
[6]
  solubility at 24 h: 25 mM (≈ 8940 µg/mL)
[7]
  logD: 1.05

## CNC(=O)[C@H]1O[C@@H](n2cnc3c(NCc4cccc(I)c4)ncnc32)[C@H](O)[C@@H]1O [IB-MECA]
[8]
  nH Ref: 0.7

## CN1[C@@H]2CC[C@H]1C[C@@H](OC(=O)c1cc(Cl)cc(Cl)c1)C2 [MDL 72222]
[9]
  nH Ref: 1.1

## N=C(N)NCCC[C@@H](N)C(=O)N[C@@H](CCCNC(=N)N)C(=O)N1CCC[C@H]1C(=O)N1C[C@H](O)C[C@H]1C(=O)NCC(=O)N[C@@H](Cc1ccccc1)C(=O)N[C@@H](CO)C(=O)N[C@H](Cc1ccccc1)C(=O)N[C@@H](Cc1ccccc1)C(=O)N[C@@H](CCCNC(=N)N)C(=O)O [NPC 567]
[10]
  nH Ref: 0.8

## CC[C@H](NC(=O)c1c(C)c(-c2ccccc2)nc2ccccc12)c1ccccc1 [SB 222200]
[11]
  nH Ref: 1.0

## CN1CCc2cc(Cl)c(O)cc2[C@@H](c2ccccc2)C1 [SCH 23390]
[12]
  nH Ref: 0.9

## CCCC[C@H](NC(=O)[C@H](CC(C)C)NC(=O)CNC(=O)[C@@H](NC(=O)[C@H](Cc1ccccc1)NC(=O)[C@H](CO)NC(=O)[C@@H](N)CC(=O)O)C(C)C)C(N)=O [[Nleu10]-NKA (4-10)]
[13]
  nH Ref: 0.9

## CC(C)NCC(O)COc1ccc(CC(N)=O)cc1 (centres unmarked) [atenolol]
[14]
  nH Ref: 0.9

## CN/C(=N/CCSCc1nc[nH]c1C)NC#N [cimetidine]
[15]
  nH Ref: 0.9

## O=C(c1ccc(F)cc1)C1CCN(CCn2c(=O)[nH]c3ccccc3c2=O)CC1 [ketanserin]
[16]
  nH Ref: 1.2

## COc1ccc2[nH]cc(CCNC(C)=O)c2c1 [melatonin]
[17]
  nH Ref: 1.3

## COc1ccccc1CNCCCCCCNCCCCCCCCNCCCCCCNCc1ccccc1OC [methoctramine]
[18]
  nH Ref: 0.8

## CNCC(=O)N[C@@H](CCCN=C(N)N)C(=O)N[C@H](C(=O)N[C@@H](Cc1ccc(O)cc1)C(=O)N[C@H](C(=O)N[C@@H](Cc1cnc[nH]1)C(=O)N1CCC[C@H]1C(=O)N[C@@H](C)C(=O)O)C(C)C)C(C)C [saralasin]
[19]
  nH Ref: 0.9

## NCCc1c[nH]c2ccc(O)cc12 [serotonin]
[20]
  nH Ref: 1.2
[21]
  nH Ref: 0.7
[22]
  nH Ref: 0.8
[23]
  nH Ref: 0.6

## (+)butaclamol
[24]
  nH Ref: 1.3
